This note sets out measurements from patent US20240228489A1, “POSITIVE ALLOSTERIC MODULATORS OF THE MUSCARINIC ACETYLCHOLINE RECEPTOR M1” (Vanderbilt University, priority 2021, published 2024).

Experiment [1] concerns the target T1, human mAChR M1 (Homo sapiens, UniProt P11229).
T1 sequence (P11229 1-460): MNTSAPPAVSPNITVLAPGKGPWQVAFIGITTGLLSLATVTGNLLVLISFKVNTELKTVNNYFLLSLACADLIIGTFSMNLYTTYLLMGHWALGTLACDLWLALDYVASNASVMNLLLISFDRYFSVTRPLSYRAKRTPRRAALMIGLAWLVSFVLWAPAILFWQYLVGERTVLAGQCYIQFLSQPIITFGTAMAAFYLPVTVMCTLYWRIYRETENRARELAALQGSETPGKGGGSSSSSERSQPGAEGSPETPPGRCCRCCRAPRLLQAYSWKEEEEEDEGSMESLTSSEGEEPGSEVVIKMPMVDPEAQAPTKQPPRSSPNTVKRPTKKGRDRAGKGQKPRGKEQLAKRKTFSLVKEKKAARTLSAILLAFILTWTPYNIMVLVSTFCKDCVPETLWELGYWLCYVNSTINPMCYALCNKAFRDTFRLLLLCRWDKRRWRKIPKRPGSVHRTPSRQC
The experiment can be described thus: mAChR M1 cell-based functional assay (calcium mobilization), PAM mode: increase in the EC20 acetylcholine response. Put shortly: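 CHO-K1 cells stably expressing hM1, Fluo-4 loaded, read by FDSS calcium flux at 1 Hz. Compound (11-point 1:3 CRC) added at 4 s, EC20 acetylcholine at 144 s, EC80 at 230 s. PAM activity taken as concentration-dependent increase in EC20 ACh response, fitted by four-parameter logistic for EC50/Emax.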

The target of experiment [2] is T1, human mAChR M1. Description: mAChR M1 cell-based functional assay (calcium mobilization), agonist mode: compound alone, Emax relative to acetylcholine maximum. To be noted: for EC50 / Agonist Activity Human M1 EC50: human mAChR M1; for Emax: relative to the maximum for acetylcholine. Put shortly: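 CHO-K1 cells stably expressing hM1 were loaded with Fluo-4 AM, and calcium flux was read as fluorescence ratio. Compound was added alone from an 11-point 1:3 curve, and the agonist response was fitted with a four-parameter logistic. Emax is expressed relative to the acetylcholine maximum.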

As for `[2H]C1([2H])c2ncccc2C(=O)N1Cc1c(F)cc(-c2ccnc3nn(C)cc23)cc1OCC(C)C` [Compound 217, 6-(2-fluoro-6-isobutoxy-4-(2-methyl-2H-pyrazolo[3,4-b]pyridin-4-yl)benzyl)-6,7-dihydro-5H-pyrrolo[3,4-b]pyridin-5-one-7,7-d2], the EC50 at human mAChR M1 [1] stood at 207 nM; at human mAChR M1 [2] it was 2860 nM. In addition, the values for the Emax at human mAChR M1 [1] and at human mAChR M1 [2] were 78% and 23%, respectively.

Regarding `[2H]C1([2H])c2ncccc2C(=O)N1Cc1c(F)cc(-c2cc(F)c(Cl)c3nn(C)cc23)cc1F` [Compound 245, 6-(4-(7-chloro-6-fluoro-2-methyl-2H-indazol-4-yl)-2,6-difluorobenzyl)-6,7-dihydro-5H-pyrrolo[3,4-b]pyridin-5-one-7,7-d2], at human mAChR M1 [1], the EC50 was over 10000 nM and the Emax stood at 47%. In addition, on human mAChR M1 [2], the “Agonist Activity Human M1 EC50” value is on record as “Inactive” and the Emax was 1%.

Consider `[2H]C1([2H])c2ncccc2C(=O)N1Cc1ccc(-c2ccc3c(cnn3C)c2)cc1` [Compound 237, 6-(4-(1-methyl-1H-indazol-5-yl)benzyl)-6,7-dihydro-5H-pyrrolo[3,4-b]pyridin-5-one-7,7-d2], for which, at human mAChR M1 [1], the EC50 is over 10000 nM and the Emax was 47%. Also, at human mAChR M1 [2], the “Agonist Activity Human M1 EC50” value is listed as “Inactive” and the Emax was found to be 2%.

Consider `[2H]C([2H])([2H])Oc1cnc2c(c1)C(=O)N(Cc1c(F)cc(-c3cccc4nn(C)cc34)cc1F)C2([2H])[2H]` [Compound 63, 6-(2,6-Difluoro-4-(2-methyl-2H-indazol-4-yl)benzyl)-3-(methoxy-d3)-6,7-dihydro-5H-pyrrolo[3,4-b]pyridin-5-one-7,7-d2], for which, on human mAChR M1 [1], the EC50 amounted to 125 nM and the maximal response (Emax) worked out at 89%. Besides, at human mAChR M1 [2], the “Agonist Activity Human M1 EC50” value was “Inactive” and the maximal effect (Emax) was 3%.

Take `[2H]C1([2H])c2ncccc2C(=O)N1Cc1c(F)cc(-c2ccc(F)c3nn(C)cc23)cc1F` [Compound 36, 6-(2,6-difluoro-4-(7-fluoro-2-methyl-2H-indazol-4-yl)benzyl)-6,7-dihydro-5H-pyrrolo[3,4-b]pyridin-5-one-7,7-d2]: at human mAChR M1 [1], the EC50 worked out at 476 nM and the maximum response (Emax) is 84%. Moreover, on human mAChR M1 [2], the “Agonist Activity Human M1 EC50” value is given as “Inactive” and the Emax came out at 5%.

Regarding `[2H]C1([2H])c2ncccc2C(=O)N1Cc1c(F)cc(-c2ccc(OC(F)(F)F)c3nn(C)cc23)cc1F` [Compound 103, 6-(2,6-difluoro-4-(2-methyl-7-(trifluoromethoxy)-2H-indazol-4-yl)benzyl)-6,7-dihydro-5H-pyrrolo[3,4-b]pyridin-5-one-7,7-d2], on human mAChR M1 [1], the EC50 stood at 1550 nM and the Emax stood at 73%. Besides, at human mAChR M1 [2], the “Agonist Activity Human M1 EC50” value is recorded as “Inactive” and the Emax worked out at 2%.

As to `[2H]C1([2H])c2ncccc2C(=O)N1Cc1c(F)cc(-c2ccc3nn(C([2H])([2H])[2H])cc3c2)cc1F` [Compound 100, 6-(2,6-difluoro-4-(2-(methyl-d3)-2H-indazol-5-yl)benzyl)-6,7-dihydro-5H-pyrrolo[3,4-b]pyridin-5-one-7,7-d2], at human mAChR M1 [1], the EC50 is 214 nM and the Emax came out at 85%. Moreover, at human mAChR M1 [2], the “Agonist Activity Human M1 EC50” value is on record as “Inactive” and the maximal effect (Emax) was 6%.

With `[2H]C1([2H])c2ncccc2C(=O)N1Cc1c(C)cc(-c2cccc3nn(C)cc23)cc1F` (single isomer, unassigned) [Compound 155, 6-(2-Fluoro-6-methyl-4-(2-methyl-2H-indazol-4-yl)benzyl)-6,7-dihydro-5H-pyrrolo[3,4-b]pyridin-5-one-7,7-d2], on human mAChR M1 [1], the EC50 was found to be 2480 nM and the Emax was determined as 82%. At human mAChR M1 [2], the EC50 was 8250 nM and the Emax worked out at 34%.

For the compound `[2H]C1([2H])c2ncccc2C(=O)N1Cc1ccc(-c2cccc3nn(C)cc23)cc1C(C)C` [Compound 233, 6-(2-isopropyl-4-(2-methyl-2H-indazol-4-yl)benzyl)-6,7-dihydro-5H-pyrrolo[3,4-b]pyridin-5-one-7,7-d2], on human mAChR M1 [1], the half-maximal effective concentration (EC50) is at least 10000 nM and the Emax worked out at 43%. In addition, at human mAChR M1 [2], the “Agonist Activity Human M1 EC50” value is “Inactive” and the maximal effect (Emax) stood at 1%.

Consider `[2H]C1([2H])c2ncccc2C(=O)N1Cc1c(F)cc(-c2ccc(OC3CC3)c3nn(C)cc23)cc1C1CC1` [Compound 202, 6-(4-(7-cyclopropoxy-2-methyl-2H-indazol-4-yl)-2-cyclopropyl-6-fluorobenzyl)-6,7-dihydro-5H-pyrrolo[3,4-b]pyridin-5-one-7,7-d2], for which, at human mAChR M1 [1], the 50% effective concentration (EC50) came out at 429 nM and the Emax was 81%. At human mAChR M1 [2], the EC50 is 3240 nM and the Emax turned out to be 44%.

As to `[2H]C1([2H])c2ncccc2C(=O)N1Cc1c(F)cc(-c2ccc(F)c3nn(C)cc23)cc1Cl` [Compound 164, 6-(2-chloro-6-fluoro-4-(7-fluoro-2-methyl-2H-indazol-4-yl)benzyl)-6,7-dihydro-5H-pyrrolo[3,4-b]pyridin-5-one-7,7-d2], at human mAChR M1 [1], the EC50 worked out at 476 nM and the Emax is 82%. Moreover, on human mAChR M1 [2], the “Agonist Activity Human M1 EC50” value was “Inactive” and the Emax is 3%.

Turning to `[2H]C1([2H])c2ncccc2C(=O)N1Cc1ccc(-c2ccc3cncn3c2)cc1` [Compound 18, 6-(4-(imidazo[1,5-a]pyridin-6-yl)benzyl)-6,7-dihydro-5H-pyrrolo[3,4-b]pyridin-5-one-7,7-d2], on human mAChR M1 [1], the EC50 was found to be 4170 nM and the Emax came out at 65%. Besides, at human mAChR M1 [2], the “Agonist Activity Human M1 EC50” value is “Inactive” and the maximal response (Emax) is 2%.

For the compound `[2H]C1([2H])c2ncccc2C(=O)N1Cc1c(F)cc(-c2ccc(O[C@H]3CCOC3)c3nn(C)cc23)cc1F` [Compound 136, (S)-6-(2,6-difluoro-4-(2-methyl-7-((tetrahydrofuran-3-yl)oxy)-2H-indazol-4-yl)benzyl)-6,7-dihydro-5H-pyrrolo[3,4-b]pyridin-5-one-7,7-d2], on human mAChR M1 [1], the EC50 came to 245 nM and the Emax stood at 74%. Moreover, on human mAChR M1 [2], the EC50 turned out to be 8420 nM and the Emax was 28%.

In the case of `[2H]C1([2H])c2ncccc2C(=O)N1Cc1c(C)cc(-c2ccc(C)c3nn(C([2H])([2H])[2H])cc23)cc1F` [Compound 157, 6-(2-fluoro-6-methyl-4-(7-methyl-2-(methyl-d3)-2H-indazol-4-yl)benzyl)-6,7-dihydro-5H-pyrrolo[3,4-b]pyridin-5-one-7,7-d2], at human mAChR M1 [1], the EC50 came out at 456 nM and the Emax stood at 81%. For the same compound, at human mAChR M1 [2], the EC50 was at least 10000 nM and the Emax is 16%.

Take `[2H]C1([2H])c2ncccc2C(=O)N1Cc1ccc(-c2cccc3nn(C([2H])([2H])[2H])cc23)cc1C(C)C` [Compound 234, 6-(2-isopropyl-4-(2-(methyl-d3)-2H-indazol-4-yl)benzyl)-6,7-dihydro-5H-pyrrolo[3,4-b]pyridin-5-one-7,7-d2]: on human mAChR M1 [1], the EC50 was at least 10000 nM and the maximal response (Emax) came out at 42%. Besides, at human mAChR M1 [2], the “Agonist Activity Human M1 EC50” value was “Inactive” and the maximum response (Emax) is 1%.

With `[2H]C1([2H])c2ncccc2C(=O)N1Cc1c(F)cc(-c2ccc(OCCOC)c3nn(C([2H])([2H])[2H])cc23)cc1F` [Compound 114, 6-(2,6-difluoro-4-(7-(2-methoxyethoxy)-2-(methyl-d3)-2H-indazol-4-yl)benzyl)-6,7-dihydro-5H-pyrrolo[3,4-b]pyridin-5-one-7,7-d2], on human mAChR M1 [1], the EC50 was 162 nM and the Emax was 77%. For the same compound, at human mAChR M1 [2], the EC50 was 8010 nM and the Emax was 43%.

Turning to `[2H]C1([2H])c2ncc(O)cc2C(=O)N1Cc1c(F)cc(-c2cccc3nn(C([2H])([2H])[2H])cc23)cc1F` [Compound 141, 6-(2,6-difluoro-4-(2-(methyl-d3)-2H-indazol-4-yl)benzyl)-3-hydroxy-6,7-dihydro-5H-pyrrolo[3,4-b]pyridin-5-one-7,7-d2], the EC50 at human mAChR M1 [1] turned out to be 122 nM; at human mAChR M1 [2] it was 8020 nM. Moreover, the Emax at human mAChR M1 [1] was found to be 73%; at human mAChR M1 [2], 50%.

For the compound `[2H]C1([2H])c2ncccc2C(=O)N1Cc1c(F)cc(-c2ccc(OC(C)COC)c3nn(C)cc23)cc1F` (stereo not shown) [Compound 133, 6-(2,6-difluoro-4-(7-((1-methoxypropan-2-yl)oxy)-2-methyl-2H-indazol-4-yl)benzyl)-6,7-dihydro-5H-pyrrolo[3,4-b]pyridin-5-one-7,7-d2], at human mAChR M1 [1], the EC50 was determined as 486 nM and the Emax was 79%. On human mAChR M1 [2], the 50% effective concentration (EC50) is at least 10000 nM and the Emax was 35%.

For the compound `[2H]C1([2H])c2ncccc2C(=O)N1Cc1c(Cl)cc(-c2cccc3nn(C([2H])([2H])[2H])cc23)cc1Cl` [Compound 228, 6-(2,6-dichloro-4-(2-(methyl--d3)-2H-indazol-4-yl)benzyl)-6,7-dihydro-5H-pyrrolo[3,4-b]pyridin-5-one-7,7-d2], at human mAChR M1 [1], the half-maximal effective concentration (EC50) was determined as 380 nM and the Emax turned out to be 60%. Also, at human mAChR M1 [2], the “Agonist Activity Human M1 EC50” value is “Inactive” and the Emax amounted to 1%.
